The values below come from patent publication US20220002396A1, “METHODS OF TREATING CANCER WITH FARNESYLTRANSFERASE INHIBITORS” (Kura Oncology, Inc., priority 2018, published 2022).

What all share (assay type): in vivo, human
One data set relates to previously untreated AML. Put plainly: Tipifarnib monotherapy in elderly patients with previously untreated AML (CTEP-20), outcome by IGF1/CXCL12 expression. The protocol:
(§1) Gene expression profile (GEP) data generated using RNA-Seq and the Affymetrix U133A gene-chip of tumor samples from 71 patients enrolled in tipifarnib trials (CTEP-20, KO-TIP-002, KO-TIP-004) were analyzed with respect to study outcomes and complemented with analyses of mRNA expression in data sets from the cBioportal for Cancer Genomics. Clinical trial information: NCT00027872, NCT02464228, NCT02807272.
Data from a study investigating tipifarnib monotherapy in elderly patients with previously untreated AML (CTEP-20) was examined in detail to determine the effect of the expression of CXCL12 and IGF1 on the response of the patients to tipifarnib.
The effect of IGF1/CXCL12 co-expression on patient outcome in tipifarnib was examined. In previously untreated AML, 3 subsets of patients were identified with respect to IGF1/CXCL12 expression (FIG. 2A). These subsets were 1) high IGF1, high CXCL12 (left boxplots), 2) intermediate IGF1, low CXCL12 (middle boxplots), and 3) low IGF1, variable CXCL12, (right boxplots).
When CXCL12 was at low levels and IGF1 was at intermediate levels, low CXCL12 levels translates to disease progression with 1 CR and 8 with progressive disease (PD) as outcome (FIG. 2C). When the IGF1 levels were low, CXCL12 had variable levels and six patients out of 15 experienced CR. […] Receiver-Operator-Characterisitics (ROC) curves for prediction of a CR in these patients confirmed that higher CXCL12 and lower IGF1 levels were predictive of complete responses in the AML patient population (FIG. 2E).

The next data set concerns breast cancer. Put plainly: Phase II study of tipifarnib in breast cancer patients (Study GBR-1). The method, then: Biomarkers in breast cancer were also examined for their relationship to CXCL12/IGF1 expression and to the activity of tipifarnib when administered to patients. A phase II study was performed with 76 patients treated with tipifarnib (Study GBR-1). Patients were tested for estrogen-receptor positivity (ER+) or negativity (ER−), progesterone receptor positivity (PGR+) or negativity (PGR−), and the presence or absence of TP53 mutation. Overall response rate in the study was 12%. Biomarker data was available for 41 patients.

A further data set has as its system CMML. The data set is described as follows: Tipifarnib-treated CMML subjects with pre-treatment BM gene expression data. Conditions: in 17 tipifarnib-treated CMML subjects. The method, then: as §1
Four objective responses and 1 tumor lysis syndrome were reported in 17 tipifarnib-treated CMML subjects with available pre-treatment BM gene expression data. CXCL12 expression (p=0.07) and the CXCL12/CXCR4 ratio (p=0.03) were predictive of those events while IGF1 expression levels were barely detectable in these patients.

A further data set deals with nodal PTCL. The data set is described as follows: Tipifarnib monotherapy in nodal PTCL patients with pre-treatment GEP data. Conditions: 13 nodal PTCL patients. The method, then: as §1
The effect of CXCL12 and IGF1 was also investigated in 13 nodal PTCL patients with pre-treatment GEP data who received tipifarnib monotherapy. […] Adjusting the IGFBP7 expression to the level of IGF1R expression also identified those patients as responders to therapy.

The test system of data set [1] is advanced pancreatic adenocarcinoma. Put plainly: Randomized, double-blind, placebo-controlled study of gemcitabine+tipifarnib versus gemcitabine+placebo (Study INT-17 / INT-11). The method, then: In a randomized, double-blind, placebo-controlled study of gemcitabine+tipifarnib versus gemcitabine+placebo in patients with advanced pancreatic adenocarcinoma previously untreated with systemic therapy, tipifarnib (R115777) was administered at a dosage amount of 200 mg twice a day, orally, and continuously (Study INT-17). Gemcitabine was administered intravenously at a dosage amount of 1,000 mg/m(2) weekly x 7 for 8 weeks, then weekly x 3 every 4 weeks. 686 patients were enrolled. The median overall survival for the experimental arm was 193 v 182 days for the control arm (P=0.75).

Setting [2] is: subset intermediate IGF1, low CXCL12.

In the case of `Cn1cncc1[C@@](N)(c1ccc(Cl)cc1)c1ccc2c(c1)c(-c1cccc(Cl)c1)cc(=O)n2C` [tipifarnib], the “complete response (CR)” value in the data set on previously untreated AML (subset high IGF1, high CXCL12, out of 10 subjects) was 2 patients; with previously untreated AML (setting [2]) it was 1. The “progressive disease (PD) as outcome” value in the data set with previously untreated AML (setting [2]) is 8. This compound also came in with an Overall response rate with breast cancer (76 patients treated) of 12%. For the same compound, the objective response rate is 75% with breast cancer (four patients with PGR(+) and ER(−) tumors); 57% with breast cancer (seven patients with PGR(+) and wild type TP53 tumors). Also, in the data set with breast cancer (one line per patient, PGR(+) ER(−) population), the RESPONSE result was “NO RESPONSE”. Also, in the data set with CMML, the tumor lysis syndrome stood at 1. In the data set on nodal PTCL, the “partial responses (PR)” value is given as 2.

As for gemcitabine [gemcitabine+placebo], the median overall survival in data set [1] (686 patients enrolled, tipifarnib 200 mg twice a day orally, gemcitabine 1,000 mg/m(2) IV, P=0.75) was determined as 182 days. Further, the “survival of patients not reporting versus reporting abdominal pain at study entry, within arm” value in data set [1] (FIG. 5B) is “not significantly different”. Besides, in data set [1] (all patients, per arm), the “Neutropenia grade > or =3” value stood at 30% and the “thrombocytopenia grade > or =3” value worked out at 12%.
